In US20260028390A1, “ALPHA1-ANTITRYPSIN FOR USE IN THE TREATMENT OF DISEASES OR DISORDERS OF THE NERVOUS SYSTEM SUCH AS CHRONIC INFLAMMATORY DEMYELINATING POLYNEUROPATHY” (Ageronix SA, priority 2022, published 2026):
Values joined by “and” are separate entries in the source; they are usually repeats but may differ in a detail not shown here. Equal entries are not always repeated.

Tests used:
[1] = tested on: C3-PMP22 transgenic mice (CMT1A); assay: Sciatic nerve electrophysiology (EMG), CMT1A mouse study (50 mg/kg twice daily); format: in vivo; conditions: for Compound muscle action potential (Mean ± SEM) / Nerve conduction velocity (Mean ± SEM): CMT1A + AAT; for Amplitude, MEAN / Amplitude, individual mice / Conduction velocity, MEAN / Conduction velocity, individual mice / T1 distal, individual mice / T2 proximal, individual mice: CMT1A + hAAT
Excerpt: As a murine model of CMT1A we used C3-PMP22 transgenic mice (B6.Cg-Tg(PMP22)C3Fbas/J, The Jackson Laboratory) which express three copies of a wild-type human peripheral myelin protein 22 (PMP22) gene (Verhamme, Camiel, et al. Journal of Neuropathology & Experimental Neurology 70.5 (2011): 386-398). Mice were housed in macrolon cages with filter hoods, in a continuously air-filtered room, thereby avoiding contamination. During experiments, paired animals were caged at a constant temperature with a day/night cycle of 12/12 hours. Animals were fed (control tap water and nutrition) ad libitum. Animal protocol is approved by the Animal Studies Committee of Languedoc Roussillon. This protocol and the laboratory procedures comply with French legislation, which implements the European Directives (Reference Number: D3417223, APAFIS #23920-2020020320279696 v3). Animal health was followed on a daily basis to ensure that only animals in good health enter the testing procedures and follow up the study.
Animals were split in 3 groups (wild-type control (subcutaneous 0.9% NaCl), CMT1A-vehicle (subcutaneous 0.9% NaCl), CMT1A-human alpha-1 antitrypsin (subcutaneous, twice daily, 50 mg/kg per injection)) of 3 mice each (3 weeks old males of 18±2.5 g at the beginning of study) and all went through the following protocol after 7 days of acclimation on site.
On the first and last day of treatment, the neuromuscular performance of animals was tested with a rotarod test, grip test and sciatic nerve electrophysiology test. After the last treatment at 8 weeks, these tests were repeated, and animals were sacrificed and the left sciatic nerve was sampled for histological evaluation of the number and size of […].
Sciatic nerve electrophysiology (EMG) provides sensitive and quantitative approach to measure compound muscle action potential and nerve conduction velocity amplitude in the animals and was done by stimulation of the sciatic nerve. Similar compound muscle action potential (CMAP) amplitudes were observed between groups at the baseline (6 weeks old).

CIDP mice = assay: Grip strength test, CIDP mouse model; format: in vivo; conditions: for Grip strength (Mean ± SD): CIDP mice; for Grip strength, group Mean: group mean of 4 animals; for Grip strength, Mean/animal: per animal; for Grip strength, Mean/animal / Grip strength, set 1 / Grip strength, set 2 / Grip strength, set 3: listed as hAAT; for Grip strength, set 1 / Grip strength, set 2 / Grip strength, set 3: raw data per animal
Protocol: C57BL/6 mice were received at 8 weeks of age and housed under controlled conditions for the duration of the study. Three groups of 4 animals each were assigned to the following subcutaneous treatments twice daily at 7:00 AM and 7:00 PM for 2 weeks, from 20 to 35 days after the start of disease induction: • Wild type (WT) mice receiving the vehicle, 0.9% NaCl (positive control) • CIDP mice receiving the vehicle, 0.9% NaCl (negative control) • CIDP mice receiving human AAT (AAT), 50 mg/kg per injection
Disease induction consisted in subcutaneous injection of mouse sciatic nerve homogenate in phosphate buffer saline (PBS)+Freund's adjuvant mixture at 10 mL/kg. For each treatment, 3 different body sites injections were performed. Control mice also received three subcutaneous injections of PBS+Freund's adjuvant at the same 3 different body sites.
On the first (Day 20) and last (Day 35) day of treatment, the neuromuscular and performance of animals was tested with a rotarod test, grip test and a sensory test using the Von Frey filament test, as well as sciatic nerve electrophysiology test. After the last treatment at Day 35, these tests were repeated, animals were sacrificed and the left sciatic nerve was sampled for histological evaluation of the number and size of […].

[2] = tested on: CMT1A mice B6.Cg-Tg(PMP22)C3Fbas/J; assay: Sciatic nerve electrophysiology (CMAP, NCV), CMT mice treated with AAT 180 mg/kg/day sc; format: in vivo, mouse
Protocol: CMT MOUSE MODEL: Non-humanized CMT1A mice B6.Cg-Tg(PMP22)C3Fbas/J (three copies of the PMP22 gene), three groups of 8 animals each.
DOSAGE: 180 mg/kg/day non-clinical grade AAT (Sigma)
ADMINISTRATION: Subcutaneous (SC) (bi-daily injection of 90 mg/kg)
Animals were received at 6 weeks of age and housed under controlled conditions for the duration of the study. The study comprised two groups of 8 transgenic mice (CMT mice) each and one group of 8 age matched wild type (WT) C57B16 mice, serving as positive control. Animals were assigned to the following subcutaneous treatments twice daily at 7:00 AM and 7:00 PM for 2 weeks, starting from 8 weeks and up to 10 weeks of age: • Wild-type (WT, no disease) mice receiving vehicle, 0.9% NaCl (positive control) • CMT1A mice receiving vehicle, 0.9% NaCl (negative control) • CMT1A mice receiving AAT at 90 mg/kg per injection (daily dose 180 mg/kg)
The efficacy parameters included: • neuromuscular performance (rotarod latency to fall and grip strength test), • sciatic nerve electrophysiology (CMAP amplitude and NCV) • cytokine (IL-6 and TNFα), as well as NfL analysis • sciatic nerve histology (number of axons and axonal diameter),
On the first day of treatment (Day 1), the neuromuscular and performance of animals was tested with a rotarod test and a grip strength test, as well as sciatic nerve electrophysiology test, which measured the compound muscle action potential (CMAP) and the nerve conduction velocity (NCV). After the last treatment on Day 15, these tests were repeated. Animals were then left untreated for 2 additional weeks to evaluate the duration of the treatment effect. Following the 2-week treatment-free period until 12 weeks of age (Day 30), the behavioural and electrophysiological tests were repeated.

[3] = 8 weeks old (baseline, Day 1), CMT1A + AAT
[4] = 8 weeks old, CMT + hAAT 180 mg/kg/day SC, 8 mice
[5] = 8 weeks old, CMT + hAAT 180 mg/kg/day SC, individual mouse
[6] = 10 weeks old (Day 15, after 2 weeks AAT 90 mg/kg sc twice daily)
[7] = 12 weeks old (Day 30, after 2-week treatment-free period)
[8] = CMT mice, AAT 90 mg/kg sc twice a day, 8 to 10 weeks of age, end of treatment

alpha1-antitrypsin (AAT) protein
NCV compared to the vehicle treated group ([1]; CMT1A + AAT treated group, 8 weeks old): increase
Compound muscle action potential (Mean ± SEM) ([1]; 6 weeks old): 6.47 ± 0.30 mV
Nerve conduction velocity (Mean ± SEM) ([1]; 6 weeks old): 24.91 ± 4.13 m/s
Nerve conduction velocity (Mean ± SEM) ([1]; 8 weeks old): 20.89 ± 1.63 m/s
Compound muscle action potential (Mean ± SEM) ([1]; 8 weeks old, p < 0.05 vs CMT1A + vehicle): 5.63 ± 1.18 mV
Amplitude, MEAN ([1]; 6 weeks old (baseline)): 6.471 mV
Amplitude, individual mice ([1]; 6 weeks old (baseline)): 7.030 mV and 6.025 mV and 6.359 mV
Conduction velocity, MEAN ([1]; 6 weeks old (baseline)): 24.909 m/s
Conduction velocity, individual mice ([1]; 6 weeks old (baseline)): 31.277 m/s and 17.182 m/s and 26.268 m/s
T1 distal, individual mice ([1]; 6 weeks old (baseline)): 0.00202 s and 0.00207 s and 0.0016 s
T2 proximal, individual mice ([1]; 6 weeks old (baseline)): 0.0025 s and 0.00295 s and 0.00217 s
Amplitude, MEAN ([1]; 8 weeks old): 5.627 mV
Amplitude, individual mice ([1]; 8 weeks old): 3.799 mV and 5.260 mV and 7.822 mV
Conduction velocity, MEAN ([1]; 8 weeks old): 20.892 m/s
Conduction velocity, individual mice ([1]; 8 weeks old): 23.904 m/s and 18.310 m/s and 20.464 m/s
T1 distal, individual mice ([1]; 8 weeks old): 0.00251 s and 0.00236 s and 0.00228 s
T2 proximal, individual mice ([1]; 8 weeks old): 0.00313 s and 0.00318 s and 0.00302 s
EMG parameters compared to the control ([1]; CMT1A mice treated with AAT, 8 weeks old): improvement
grip strength compared to the vehicle treated group (CIDP mice; CIDP + AAT 50 mg/kg sc twice daily, Day 35): increase
Grip strength (Mean ± SD) (CIDP mice; Day 20 (baseline)): 2.89 ± 0.32 newtons
Grip strength (Mean ± SD) (CIDP mice; Day 35, AAT 50 mg/kg sc twice daily): 3.59 ± 0.35 newtons
Grip strength, group Mean (CIDP mice; Baseline (Day 20)): 2.89 Newton
Grip strength, group Mean (CIDP mice; Day 35): 3.59 Newton
Grip strength, Mean/animal (CIDP mice; Baseline (Day 20)): 2.46 Newton and 3.19 Newton and 2.83 Newton and 3.08 Newton
Grip strength, Mean/animal (CIDP mice; Day 35): 3.68 Newton and 3.69 Newton and 3.91 Newton and 3.10 Newton
Grip strength, set 1 (CIDP mice; Baseline (Day 20)): 2.92 Newton and 3.06 Newton and 2.89 Newton and 3.50 Newton
Grip strength, set 2 (CIDP mice; Baseline (Day 20)): 2.43 Newton and 2.09 Newton and 2.45 Newton and 2.62 Newton
Grip strength, set 3 (CIDP mice; Baseline (Day 20)): 2.04 Newton and 4.42 Newton and 3.14 Newton and 3.13 Newton
Grip strength, set 1 (CIDP mice; Day 35): 4.92 Newton and 4.55 Newton and 5.15 Newton and 3.47 Newton
Grip strength, set 2 (CIDP mice; Day 35): 3.53 Newton and 2.00 Newton and 3.04 Newton and 2.61 Newton
Grip strength, set 3 (CIDP mice; Day 35): 2.58 Newton and 4.52 Newton and 3.53 Newton and 3.23 Newton
Conduction velocity, group MEAN ([2]; 6 weeks old, CMT + hAAT, 8 mice): 26.266 m/s
Compound muscle action potential (Mean ± SD) [2, 3]: 3.76 ± 0.50 mV
Nerve conduction velocity (Mean ± SD) [2, 3]: 15.96 ± 1.54 m/s
Amplitude, group MEAN [2, 4]: 5.492 mV
Conduction velocity, group MEAN [2, 4]: 16.946 m/s
Amplitude [2, 5]: 4.874 mV and 5.376 mV and 5.322 mV and 9.084 mV and 6.115 mV and 3.753 mV and 5.277 mV and 4.139 mV
Conduction velocity [2, 5]: 18.707 m/s and 16.462 m/s and 10.029 m/s and 19.200 m/s and 17.615 m/s and 9.648 m/s and 25.446 m/s and 18.460 m/s
T1 distal [2, 5]: 3.916 ms and 3.259 ms and 3.449 ms and 4.291 ms and 3.773 ms and 8.247 ms and 7.467 ms and 11.449 ms
T2 proximal [2, 5]: 4.718 ms and 4.170 ms and 4.945 ms and 5.072 ms and 4.624 ms and 9.802 ms and 8.057 ms and 12.262 ms
Compound muscle action potential (Mean ± SD) [2, 6]: 5.41 ± 0.71 mV
Nerve conduction velocity (Mean ± SD) [2, 6]: 21.47 ± 6.07 m/s
NCV vs untreated group ([2]; 12 weeks of age, after 2-week treatment-free period): non-significantly different
CMAP vs untreated CMT animals ([2]; 12 weeks of age, after 2-week treatment-free period, P<0.05): significantly higher
Compound muscle action potential (Mean ± SD) [2, 7]: 2.94 ± 0.65 mV
Nerve conduction velocity (Mean ± SD) [2, 7]: 10.50 ± 1.73 m/s
compound muscle action potential amplitude vs CMT mice not treated with AAT [2, 8]: significant increase
nerve conduction velocity vs CMT mice not treated with AAT [2, 8]: significant increase
